ChEMBL document CHEMBL1158461, “The role of amphiphilicity and negative charge in glycoprotein 41 interactions in the hydrophobic pocket” (J Med Chem, 2009)
pKi: −log10 of the molar value.

Tests used:
[1] = Critical micellar concentration of the compound
[2] = Displacement of C32-Aib-fluorescein from HIV1 envelope glycoprotein gp41 Fe(env5.0)3 receptor by fluorescence assay; design: species or system Human immunodeficiency virus 1
[3] = Displacement of C27-Aib-lucifer yellow from HIV1 envelope glycoprotein gp41 Fe(env3.0)3 receptor by fluorescence assay; design: species or system Human immunodeficiency virus 1

CMC [1] | further results | Structure (SMILES)
25000 µM | – | CCCCCCCCCCS(=O)(=O)[O-].[Na+]
> 250000 µM | – | CCCCCCCCS(=O)(=O)[O-].[Na+]
<= 100 uM | – | CCCCCCCCCCCCCCCCS(=O)(=O)[O-].[Na+]
600 µM | – | CCCCCCCCCCCCCCS(=O)(=O)[O-].[Na+]
– | pKi [2]: 8.15 | CC[C@H](C)[C@H](NC(=O)[C@H](C)NC(=O)[C@H](CCCNC(=N)N)NC(=O)[C@H](CC(=O)O)NC(=O)[C@H](Cc1c[nH]c2ccccc12)NC(=O)[C@H](C)NC(=O)[C@H](CCC(=O)O)NC(=O)[C@H](Cc1c[nH]c2ccccc12)NC(=O)[C@@H](NC(=O)[C@@H](NC(C)=O)[C@H](C)O)[C@H](C)O)C(=O)N[C@@H](C)C(=O)N[C@@H](CCC(=O)O)C(=O)N[C@@H](Cc1ccc(O)cc1)C(=O)N[C@@H](C)C(=O)N[C@@H](C)C(=O)N[C@@H](CCCNC(=N)N)C(=O)N[C@H](C(=O)N[C@@H](CCC(=O)O)C(=O)N[C@@H](C)C(=O)N[C@@H](CC(C)C)C(=O)N[C@H](C(=O)N[C@@H](CCCNC(=N)N)C(=O)N[C@@H](C)C(=O)N[C@@H](C)C(=O)N[C@@H](CCC(N)=O)C(=O)N[C@@H](CCC(=O)O)C(=O)N[C@@H](CCC(N)=O)C(=O)N[C@@H](CCC(N)=O)C(=O)N[C@@H](CCC(=O)O)C(=O)N[C@@H](CCCCN)C(=O)N[C@@H](CC(N)=O)C(=O)N[C@@H](CS)C(N)=O)[C@@H](C)CC)[C@@H](C)CC
5000 µM | – | CCCCCCCCCCCCS(=O)(=O)[O-].[Na+]
– | pKi [3]: 5.92 | CC[C@@H](C)[C@H](NC(=O)[C@H](CCC(=O)O)NC(=O)[C@H](CCCNC(=N)N)NC(=O)[C@H](CC(=O)O)NC(=O)[C@H](Cc1c[nH]c2ccccc12)NC(=O)[C@H](CCC(=O)O)NC(=O)C(C)(C)NC(=O)[C@H](Cc1c[nH]c2ccccc12)NC(=O)[C@@H](NC(=O)[C@@H](NC(=O)[C@H](Cc1cnc[nH]1)NC(=O)[C@H](CC(N)=O)NC(=O)[C@H](Cc1c[nH]c2ccccc12)NC(=O)C(C)(C)NC(=O)[C@H](CCC(N)=O)NC(=O)[C@H](CCC(=O)O)NC(=O)[C@H](CC(C)C)NC(=O)[C@H](CO)NC(=O)[C@H](CCCCN)NC(C)=O)[C@@H](C)O)[C@@H](C)O)C(=O)NC(C)(C)C(=O)N[C@@H](CC(N)=O)C(=O)N[C@@H](Cc1ccc(O)cc1)C(=O)N[C@H](C(=O)N[C@@H](CO)C(=O)N[C@@H](CC(C)C)C(=O)N[C@H](C(=O)N[C@@H](CS)C(N)=O)[C@@H](C)CC)[C@@H](C)O
200000 µM | – | CCCCCCCC(=O)[O-].[Na+] [SODIUM CAPRYLATE]
15000 µM | – | CCCCCCCCCCOS(=O)(=O)[O-].[Na+] [SODIUM DECYL SULFATE]
2500 µM | – | CCCCCCCCCCCC(=O)[O-].[Na+] [SODIUM DODECANOATE]
2000 µM | – | CCCCCCCCCCCCOS(=O)(=O)[O-].[Na+] [SODIUM LAURYL SULFATE]
< 100 µM | – | CCCCCCCCCCCCCCCCCCOS(=O)(=O)[O-].[Na+] [SODIUM OCTADECYL SULFATE]
30000 µM | – | CCCCCCCCOS(=O)(=O)[O-].[Na+] [SODIUM OCTYL SULFATE]
150 µM | – | CCCCC(CC)CCC(CC(C)C)OS(=O)(=O)[O-].[Na+] (stereo not given) [SODIUM TETRADECYL SULFATE]
600 µM | – | CCCCCCCCCCCCCOS(=O)(=O)[O-].[Na+] [SODIUM TRIDECYL SULFATE]
